# Measurements published in patent US20150202308A1, “BUDESONIDE FORMULATION” (Nephron Pharmaceuticals Corporation, priority 2014, published 2015).
# Experiments:
# Format in all cases: physicochemical
# [1] = Alternative beta-cyclodextrins for complexation with budesonide (% assay); conditions: for % Assay: budesonide inhalation solution 0.188 mg/mL
# Experimental: (§1) Preparation of Lab Batches: Tared a clean/dry beaker+stir bar. Weighed and transferred Budesonide and cyclodextrin into the beaker and mixed dry to achieve uniform dispersion. Dissolved with a portion of stock buffer solution to create a saturated ionic phase and mixed for 5-20 minutes. Slowly diluted with the buffer solution and mixed for an additional 5-10 minutes. The pH of the solution was then adjusted with 1M citric acid or 1M NaOH and diluted to the final volume with purified water. While mixing, the solution was sparged with nitrogen for 30 minutes.
# Alternative Beta-Cyclodextrins for Complexation: Laboratory batches of budesonide inhalation solution 0.188 mg/mL were prepared in buffer and water according to the procedure described above using 2-hydroxyethyl-B-cyclodextrin and Heptakis 2,6-Di-O-Methyl-B-cyclodextrin.
# [2] = Preliminary proof of concept studies of the new complexation process
# [3] = Complexation efficiency of budesonide with 2-HY-B-cyclodextrin in buffer vs. water (end point % assay); conditions: for % Assay at T = min. (amount of Budesonide complexed): 3% 2-HY-B-Cyclodextrin; for time to reach 100% complexation: determined from the data
# Experimental: as §1
# An end point analysis was conducted to evaluate the efficiency of the formulation procedure. Laboratory batches of Budesonide Inhalation Solution were prepared in 3% 2-HY-B-Cyclodextrin and assayed to evaluate the efficiency of the formulation procedure. During the second study, the rate of complexation between Budesonide and 2-HY-B-Cyclodextrin was evaluated in both Buffer and Water.
# Six laboratory batches of Budesonide Inhalation Solution were prepared as described above, 3 each in buffer and water. The amount of Budesonide complexed was evaluated at 5 minutes, 8 minutes and 12 minutes for each solvent and compared to the expected concentration at the 100% level.
# [4] = Minimum concentration of 2-hydroxypropyl-B-cyclodextrin for complexation (assay)
# Experimental: Studies were conducted to determine the minimum concentration of 2-Hy-B-cyclodextrin required to achieve 100% budesonide complexation. […] To evaluate if a lower concentration may be used a study was conducted to evaluate if 100% complexation was possible at between 0.5% and 3.0% cyclodextrin. • Complexation efficiency in buffer vs. water: Traditional methods of complexation are usually carried out in water. We conducted studies to evaluate the efficiency of Budesonide-cyclodextrin complexation using a complexation solution of high ionic strength and using purified water. • Alternative Salts or Complexation: The ionic strength of the Buffer solution was calculated to be approximately 508 mol/m^−3. Two alternative salts, Sodium Chloride and Potassium Chloride, and a Phosphate buffer were prepared at the same ionic strength. Laboratory batches of budesonide inhalation solution were prepared using each alternative ionic adjuster to evaluate the effects of various salts on the formulation process. • Alternative Beta-Cyclodextrins for Complexation: […] additional Beta Cyclodextrins, 2-hydroxyethyl-B-cyclodextrin and Heptakis 2,6-Di-O-Methyl-B-cyclodextrin, were evaluated as potential alternatives for complexation with Budesonide.
# as §1
# Laboratory batches of budesonide inhalation Solution 0.188 mg/mL were prepared to determine the minimum concentration of 2-Hydroxypropyl-B-cyclodextrin required for an effective formulation. Each laboratory batch was prepared as per the procedure described above.
# [5] = Filtration study of laboratory batches (assay before and after 0.22 μm filters); conditions: Budesonide with 2-hydroxypropyl-β-cyclodextrin, room temperature
# Experimental: In this study 50 mL of 5 separate laboratory batches were filtered through PTFE, PVDF, and PES 0.22 μm filters. In the case that the complexation reaction was not completed, the filtration process would remove the un-complexed budesonide producing a significant difference between the assay values before and after filtration. For each of the lab batches tested, no significant difference between pre and post filter assay values was detected, indicating 100% complexation.
# [6] = Complexation rate in buffer vs. water (filtered slurry, UV-Vis); conditions: excess Budesonide, 2 g 2-HY-B-CD in 12.5 mL concentrated buffer or water; FIG. 1
# Experimental: To evaluate the initial association rate of Budesonide with 2-hydroxypropyl-beta-cyclodextrin, excess Budesonide was mixed with 2 g of 2-HY-B-CD in 12.5 mL of concentrated buffer solution or water. 1.0 mL of this slurry was filtered through a 0.2 syringe filter to remove un-complexed Budesonide and evaluated by UV-Vis at 2 minute intervals. A positive control prepared from filtered Budesonide Inhalation Suspension containing 0.25 mg/mL of Budesonide was used to ensure non-interference. […] This is consistent with the particle size distribution of the API which has a small percentage of Budesonide with <0.2 μm particle size diameter. This small amount of Budesonide was determined not to be significant enough to bias the results.
# [7] = EDTA and gamma-cyclodextrin effects on formulation stability; conditions: for effect on formulation stability / effect of varying the amount on stability: 90 days at 40° C.; for effect of varying the amount on stability: varied beginning at 0.05%
# Experimental: A study was designed to evaluate the effects of EDTA and γ-CD on the formulation stability. Both γ-CD and EDTA were varied beginning at 0.05% and tested at 30 day intervals for 90 days stored at 40° C.
# [8] = budesonide at 0.188 mg/mL, in buffer
molecule,measurement,setting,value
2-Hydroxyethyl-B-cyclodextrin,% Assay,[1]; 3% cyclodextrin,66.7%
same,% Assay,[1]; 6% cyclodextrin,90.3%
same,% Assay,[1]; 8% cyclodextrin,96.4%
same,efficiency of complexation possible,[1]; within the proposed range of cyclodextrin (3%-8%),100%
2-Hydroxypropyl-β-cyclodextrin [HP-β-CD],percent of HP-β-CD required,[2],< 10%
"COCC1OC2OC3C(COC)OC(OC4C(COC)OC(OC5C(COC)OC(OC6C(COC)OC(OC7C(COC)OC(OC8C(COC)OC(OC1C(O)C2OC)C(OC)C8O)C(OC)C7O)C(OC)C6O)C(OC)C5O)C(OC)C4O)C(OC)C3O (stereo not drawn) [2,6-di-o-mehtyl, Heptakis 2,6-Di-O-Methyl-B-cyclodextrin]",efficiency of complexation with available budesonide,[1]; [8],100%
same,time to 100% efficiency of complexation,[1]; [8],3 to 5 min
same,% Assay,[1]; 3% cyclodextrin,101.9%
"CCCC1O[C@@H]2C[C@H]3[C@@H]4CCC5=CC(=O)C=C[C@]5(C)[C@H]4[C@@H](O)C[C@]3(C)[C@]2(C(=O)CO)O1 (stereo partly drawn) [Budesonide, 16,17-(butylidenebis(oxy))-11,21-dihydroxy-, (11-β,16-α)-pregna-1,4-diene-3,20-dione]",% Assay at T = min. (amount of Budesonide complexed),"[3]; solvent Buffer, 5 minutes, vs expected concentration at 100% level",91.1%
same,% Assay at T = min. (amount of Budesonide complexed),"[3]; solvent Buffer, 8 minutes",96.3%
same,% Assay at T = min. (amount of Budesonide complexed),"[3]; solvent Buffer, 12 minutes",99.7%
same,% Assay at T = min. (amount of Budesonide complexed),"[3]; solvent Water, 5 minutes",71.9%
same,% Assay at T = min. (amount of Budesonide complexed),"[3]; solvent Water, 8 minutes",78.1%
same,% Assay at T = min. (amount of Budesonide complexed),"[3]; solvent Water, 12 minutes",89.7%
same,increase in the initial complexation efficiency,[3]; batches in concentrated buffer solution over those prepared in water,~22%
same,increase in efficiency,"[3]; buffer vs. water, from times to 100% complexation",180%
same,time to reach 100% complexation,[3]; in buffer,approximately 9 minutes
same,time to reach 100% complexation,[3]; in water,~16.2 min
same,minimum desirable concentration of cyclodextrin to meet the USP monograph,[4],≥ 3.0%
same,Assay,"[4]; 0.188 mg/mL, 0.5% cyclodextrin, molar ratio 8.4",75.9%
same,Assay,"[4]; 0.188 mg/mL, 1.0% cyclodextrin, molar ratio 16.8",85.9%
same,Assay,"[4]; 0.188 mg/mL, 1.5% cyclodextrin, molar ratio 25.2",91.5%
same,Assay,"[4]; 0.188 mg/mL, 2.0% cyclodextrin, molar ratio 33.6",95.5%
same,Assay,"[4]; 0.188 mg/mL, 2.5% cyclodextrin, molar ratio 41.9",95.7%
same,complexation of Budesonide,"[4]; 3.0% 2-Hydroxypropyl-B-cyclodextrin, molar ratio 50.33",100%
same,complexation of Budesonide,"[4]; 4% (w/v) beta-cyclodextrin, Budesonide at 0.188 mg/mL, stable",100%
same,ratio of epimer A (of total content),"[4]; below 3.0% Beta-cyclodextrin, USP criterion 40%-51%",exceeded 51%
same,Assay,"[4]; budesonide inhalation solution 0.188 mg/mL, 3.0% 2-Hydroxypropyl-B-cyclodextrin, molar ratio CD:Budesonide 50.3",99.4%
same,time to virtually 100% complexation efficiency,[5],less than 10 minutes
same,complexation efficiency,[5]; no organic solvents,~100%
same,rate of complexation with 2-hydoxypropyl-B-cyclodextrin,[6],much higher rate in buffer than in water
O=C(O)CN(CCN(CC(=O)O)CC(=O)O)CC(=O)O [EDTA],effect on formulation stability,[7],positive effect on stability
same,effect on growth of impurity D,[7]; previous studies,helps control the growth of impurity D
same,effect of varying the amount on stability,[7],no significant effects
"OC[C@H]1O[C@@H]2O[C@H]3[C@H](O)[C@@H](O)[C@@H](O[C@H]4[C@H](O)[C@@H](O)[C@@H](O[C@H]5[C@H](O)[C@@H](O)[C@@H](O[C@H]6[C@H](O)[C@@H](O)[C@@H](O[C@H]7[C@H](O)[C@@H](O)[C@@H](O[C@H]8[C@H](O)[C@@H](O)[C@@H](O[C@H]9[C@H](O)[C@@H](O)[C@@H](O[C@H]1[C@H](O)[C@H]2O)O[C@@H]9CO)O[C@@H]8CO)O[C@@H]7CO)O[C@@H]6CO)O[C@@H]5CO)O[C@@H]4CO)O[C@@H]3CO [γ-CD, Gamma-cyclodextrin]",effect on formulation stability,[7],positive effect on stability
same,effect of varying the amount on stability,[7],no significant effects
